Assay results published in patent US12145923B2, “Tetrahydroisoquinoline compound, preparation method therefor, pharmaceutical composition containing same, and use thereof” (SHANGHAI INSTITUTE OF MATERIA MEDICA, CHINESE ACADEMY OF …, priority 2018, dated 2024).

Target: Human PDE4D catalytic domain (Homo sapiens (Human), UniProt Q08499)
Assay: Scintillation Proximity Assay (SPA), inhibition of PDE4D catalytic domain activity
Type: biochemical
Conditions: Compound concentration: 1 μM; read-out: PDE4D enzyme activity inhibition rate %
Method: The scintillation Proximity Assay (SPA) method was used to determine the inhibitory effect of compounds on the activity of PDE4D catalytic domain. Human PDE4D catalytic domain protein was obtained by expression and purification in E. coli. […] [^3H]-cAMP, scintillation beads (RPNQO150, Perkin Elmer), and 96-well scintillation microplates (Isoplate-96, Perkin Elmer) were purchased from Perkin Elmer Company.
Finally, 10 μl [^3H]-cAMP (0.005 μCi/μl) was added and incubated for 30 min at 30° C. in a water bath. 50 μl SPA beads was added to quench the reaction, shaked appropriately, and stood for 20 minutes. A microplate scintillation counter was used.

Chain of Human PDE4D catalytic domain (Q08499 386-715): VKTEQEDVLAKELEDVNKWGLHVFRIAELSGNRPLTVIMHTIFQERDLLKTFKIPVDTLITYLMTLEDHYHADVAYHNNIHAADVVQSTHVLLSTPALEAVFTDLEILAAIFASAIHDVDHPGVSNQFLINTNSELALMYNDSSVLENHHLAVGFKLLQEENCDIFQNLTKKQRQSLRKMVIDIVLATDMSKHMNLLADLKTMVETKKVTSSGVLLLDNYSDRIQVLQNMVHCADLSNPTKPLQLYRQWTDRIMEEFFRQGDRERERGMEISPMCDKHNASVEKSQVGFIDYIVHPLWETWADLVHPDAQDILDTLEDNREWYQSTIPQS

Row | inhibition at 1 µM [%] | Compound
1 | 46 | CCOc1cc2c(cc1OC)CCN(C(=O)C(F)(F)F)[C@H]2CCc1c[nH]c2ccc(OC)cc12 [(S)-C54, (S)-7-ethoxy-1-(2-(5-methoxy-1H-indol-3-yl)ethyl)-6-methoxy-3,4-dihydroisoquinoline-2(1H)-trifluoroethane-1-one]
2 | 20.5 | CCOc1cc2c(cc1OC)CCN(S(=O)(=O)c1cccnc1)[C@H]2CCc1c[nH]c2ccc(OC)cc12 [(S)-C55]
3 | 66.4 | CCOc1cc2c(cc1OC)CCN(S(=O)(=O)c1ccc(Br)c(F)c1)[C@H]2CCc1c[nH]c2ccc(OC)cc12 [(S)-C56, (S)-7-ethoxy-6-methoxy-1-(2-(5-methoxy-1H-indol-3-yl)ethyl)-2-(3-fluoro-4-bromophenyl) sulfonyl-1,2,3,4-tetrahydroisoquinoline]
4 | 66.5 | CCOc1cc2c(cc1OC)CCN(S(=O)(=O)c1ccccc1F)[C@H]2CCc1c[nH]c2ccc(OC)cc12 [(S)-C57, (S)-7-ethoxy-6-methoxy-1-(2-(5-methoxy-1H-indol-3-yl)ethyl)-2-(2-fluorophenyl)sulfonyl-1,2,3,4-tetrahydroisoquinoline]
5 | 49.7 | CCOc1cc2c(cc1OC)CCN(S(=O)(=O)c1ccc(F)cc1)[C@H]2CCc1c[nH]c2ccc(OC)cc12 [(S)-C58, (S)-7-ethoxy-6-methoxy-1-(2-(5-methoxy-1H-indol-3-yl)ethyl)-2-(4-fluorophenyl)sulfonyl-1,2,3,4-tetrahydroisoquinoline]
6 | 42.4 | CCOc1cc2c(cc1OC)CCN(C(=O)C(F)F)[C@H]2CCc1c[nH]c2ccc(OC)cc12 [(S)-C59, (S)-7-ethoxy-1-(2-(5-methoxy-1H-indol-3-yl)ethyl)-6-methoxy-3,4-dihydroisoquinolin-2(1H)-2,2-difluoroethane-1-one]
7 | 42 | CCOc1cc2c(cc1OC)CCN(S(=O)(=O)c1ccc(OC)cc1)[C@H]2CCc1c[nH]c2ccc(OC)cc12 [(S)-C60, (S)-7-ethoxy-6-methoxy-1-(2-(5-methoxy-1H-indol-3-yl)ethyl)-2-(4-methoxyphenyl)sulfonyl-1,2,3,4-tetrahydroisoquinoline]
8 | 70.8 | COc1cc2c(cc1OC)[C@H](CCc1csc3ccccc13)N(C=O)CC2 [(S)-C61, (S)-1-(2-(benzo[b]thiothiophen-3-yl)ethyl)-6,7-dimethoxy-3,4-dihydroisoquinoline-2(1H)-formaldehyde]
9 | 68.7 | CCOc1cc2c(cc1OC)CCN(C=O)[C@H]2CCc1c[nH]c2ccc(C#N)cc12 [(S)-C65, (S)-7-ethoxy-6-methoxy-1-(2-(5-cyano-1H-indol-3-yl)ethyl)-3,4-dihydroisoquinoline-2(1H)-formaldehyde]

Same assay, conditions: read-out: PDE4D enzyme activity inhibition rate %

Row | Compound | inhibition at 1 µM [%]
10 | COc1ccc2[nH]cc(CC[C@H]3c4cc(OC(F)(F)F)c(OC)cc4CCN3C=O)c2c1 [(S)-C63, (S)-7-trifluoromethoxy-1-(2-(5-methoxy-1H-indol-3-yl)ethyl)-6-methoxy-3,4-dihydroisoquinoline-2(1H)-formaldehyde] | 75.3
11 | COc1ccc2[nH]cc(CC[C@H]3c4cc(OC(F)F)c(OC)cc4CCN3C=O)c2c1 [(S)-C64, (S)-7-difluoromethoxy-1-(2-(5-methoxy-1H-indol-3-yl)ethyl)-6-methoxy-3,4-dihydroisoquinoline-2(1H)-formaldehyde] | 76.5
12 | COC(=O)c1cc2c(cc1OC)CCN(C=O)[C@H]2CCc1c[nH]c2ccc(OC)cc12 [(S)-C66, methyl-(S)-2-formyl-6-methoxy-1-(2-(5-methoxy-1H-indol-3-yl)ethyl)-1,2,3,4-tetrahydroisoquinoline-7-carboxylate] | 88.4
13 | COC(=O)c1cc2c(cc1OC)[C@H](CCc1c[nH]c3ccc(OC)cc13)N(C=O)CC2 [(S)-C67, methyl-(S)-2-formyl-7-methoxy-1-(2-(5-methoxy-1H-indol-3-yl)ethyl)-1,2,3,4-tetrahydroisoquinoline-6-carboxylate] | 85.9
